Experimental data reported in paper PMC11672292, “Discovery of Balasubramide Derivative with Tissue‐Specific Anti‐Inflammatory Activity Against Acute Lung Injury by Targeting VDAC1” (Advanced Science, 2024).

Key:
[1] = test system: intratracheal LPS-induced ALI mice; assay: Intratracheal instillation of LPS-induced ALI model; assay type: in vivo, mouse
Protocol: The intratracheal instillation of the LPS‐induced ALI model in mice has been previously validated.^[ [60], [61] ^] […] The injection volume of all groups was 10 mL kg^−1. […] The mice were fixed in dorsal recumbency, then the skins and muscles of the mice were separated to expose the tracheal after disinfection. Subsequently, mice were intratracheally injected with 50 µL LPS (20 mg kg^−1) or PBS into the lung through tracheal cartilage rings by using insulin syringes and observed after stitching up the muscles and skins. At 6 h after LPS injection, mice were euthanized to collect samples required for subsequent experiments.
After mice were sacrificed, the left lung tissue fixed with 4% paraformaldehyde was embedded in paraffin, cut into 5 µm thick sections, and stained with hematoxylin and eosin.
Mice were stimulated and treated as indicated in experiments and the lung was lavaged three times through the trachea with 500 µL pre‐chilled PBS buffer. The fluids were merged and centrifuged at 600 × g for 10 min. The supernatant was collected to measure total protein using the BCA kit and for pro‐inflammatory cytokines detection by ELISA described above, and cell pellets after centrifugation were resuspended in FACS buffer (PBS with 1% FBS). […] Finally, the samples were washed twice with FACS buffer and analyzed with Cytoflex S (Beckman coulter, USA)

[2] = test system: RAW264.7 cells; assay: CCK-8 cell viability assay; assay type: cell-based, mouse; conditions: 10 μM, 24 h
Protocol: Cell viability was determined by CCK‐8 assay. RAW264.7 cells or mouse BMDMs cultured in a 96‐well plate were pretreated with various compounds at 10 µM or different concentrations of (+)3C‐20 for 24 h when cells reached 70% confluence and then were treated with DMEM containing 5 µL CCK‐8 reagent (A311, Vazyme, China) in a humidified atmosphere of 5% CO2 and 95% air for 1 h at 37 °C. The UV absorption values of the medium with CCK‐8 were measured at 450 nm in a ThermoFisher plate‐reader (VL0L0TD2, Waltham, USA).

[3] = target: T1, VDAC1 (Mus musculus, UniProt Q60932); assay: Cellular thermal shift assay (CETSA) in RAW264.7 cells; assay type: binding; conditions: 20 µM, versus DMSO
T1 construct: endogenous in cells; host or cells: RAW264.7
T1 sequence (Q60932 14-296): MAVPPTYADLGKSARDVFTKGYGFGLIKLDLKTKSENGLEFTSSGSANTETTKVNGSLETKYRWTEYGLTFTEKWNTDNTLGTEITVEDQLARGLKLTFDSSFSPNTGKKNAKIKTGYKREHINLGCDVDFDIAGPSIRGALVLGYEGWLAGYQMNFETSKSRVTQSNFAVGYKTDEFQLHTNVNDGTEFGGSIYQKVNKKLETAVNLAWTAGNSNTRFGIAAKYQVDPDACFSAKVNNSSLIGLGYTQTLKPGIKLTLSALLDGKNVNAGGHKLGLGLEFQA
Protocol: (§1) For CETSA experiments, RAW264.7 cells were incubated with DMSO or (+)3C‐20 (20 µM) in DMEM for 3 h at standard culture conditions. After washed twice with PBS, the cells were collected and divided equally into 12 groups using PBS containing protease and phosphatase inhibitor cocktail. All the samples were heated in a module with pre‐set temperature (37–81 °C) for 3 min, and balanced at 25 °C for another 3 min. Samples were freeze‐thawed with liquid nitrogen three times to completely lyse cells. The 60 µL supernatant containing soluble protein was isolated by centrifugation (13 800 × g, 20 min, 4 °C), mixed with 20 µL laemmli buffer (4 ×), and heated for 10 min at 95 °C. Eventually, the samples were separated by 10% SDS‐PAGE gels for immunoblotting analysis. For ITDRF experiments, the procedures and details were similar to CETSA experiments. In brief, the RAW264.7 cells were seeded in 6‐well plates, incubated with different concentrations of (+)3C‐20, and heated at a designed temperature.

[4] = target: T2, VDAC2 (Mus musculus, UniProt Q60930); assay: as above; assay type: binding; conditions: 20 µM
T2 construct: endogenous in cells; host or cells: RAW264.7
T2 sequence (Q60930 1-295): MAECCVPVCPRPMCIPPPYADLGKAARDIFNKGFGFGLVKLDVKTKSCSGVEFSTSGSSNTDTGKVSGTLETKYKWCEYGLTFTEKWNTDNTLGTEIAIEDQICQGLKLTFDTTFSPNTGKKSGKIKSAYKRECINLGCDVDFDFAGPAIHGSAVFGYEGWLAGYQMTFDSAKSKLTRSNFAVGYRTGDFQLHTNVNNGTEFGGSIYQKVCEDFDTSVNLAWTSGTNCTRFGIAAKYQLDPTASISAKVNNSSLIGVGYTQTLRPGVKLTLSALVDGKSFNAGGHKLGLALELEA
Protocol: as §1

[5] = test system: sepsis-induced ALI mice; assay: Sepsis-induced acute lung injury (ALI) model (i.p. LPS); assay type: in vivo, mouse
Protocol: For sepsis‐induced ALI model, C57BL/6J mice were randomly divided into five experimental groups (n = 8–9) according to weight, including control group (PBS+Vehicle), vehicle group (LPS+Vehicle), Dexamethasone treated group (LPS+DEX at 5 mg kg^−1), (+)3C‐20 treated group (LPS+3C‐20 at 10 mg kg^−1 or 50 mg kg^−1). All mice were weighed and intraperitoneally administered DEX, (+)3C‐20 (dissolved in vehicle solution) or vehicle (5% DMSO, 20% BASF Kolliphor HS15, 75% Saline) daily for 3 consecutive days with the determined injection volume (10 mL kg^−1). After the third administration, except for the control group, mice were intraperitoneally injected with LPS (10 mg kg^−1, 10 mL kg^−1) dissolved in PBS 2 h after vehicle or compound pretreatment. […]
After mice were sacrificed, the left lung tissue fixed with 4% paraformaldehyde was embedded in paraffin, cut into 5 µm thick sections, and stained with hematoxylin and eosin. The slices were scanned with light microscopy (BX53, Olympus, Japan) to evaluate gross morphology and lung damage and inflammation, then the alveolar cells area of the image obtained was calculated with Image J 1.51 (NIH, USA), and the histopathological lung injury scores were determined as previously reported.^[ [62] ^]

O=C(CCc1ccc(C(F)(F)F)cc1)O[C@@H]1C(=O)NCCc2c([nH]c3ccccc23)[C@H]1c1ccc(C(F)(F)F)cc1 [(+)3C-20]
therapeutic effect in H&E lung histology ([1]; 50 mg kg^−1, compared to dexamethasone 5 mg kg^−1): better therapeutic effect | survival rate of mice ([1]; after intratracheal instillation of LPS, 72 h observation, versus vehicle group): increased the survival rate | lung index (lung organ coefficient) ([1]; mice, 50 mg kg^−1 i.p., LPS 20 mg kg^−1 i.t.): reverse the upregulation of lung index | lung wet/dry ratio ([1]; pre-treatment at 50 mg kg^−1, LPS 20 mg kg^−1 i.t.): significantly reduced | cell viability [2]: 103.97 ± 3.88 | thermal stabilization of VDAC1 (CETSA) [3]: significant thermal stabilization | thermal stability of VDAC2 (CETSA) [4]: did not improve the thermal stability | secretion of TNF-α in serum ([5]; i.p. 10 or 50 mg kg^−1, 3 days pretreatment, LPS 10 mg kg^−1 i.p.): dose‐dependently decreased | histopathological damage of lung (H&E) ([5]; pretreated at 10 or 50 mg kg^−1, versus vehicle group): less histopathological damage
